Experimental data as given in patent publication US20260256923A1, “NEW RECRUITMENT ELEMENT OF UBIQUITIN LIGASE AND USE THEREOF” (SHENZHEN LINGGENE BIOTECH CO., LTD., priority 2023, published 2026).

Legend:
[1] = test system: metastatic castration-resistant prostate cancer; details: patients carrying AR T878X and/or H875Y mutations; cited from earlier work
STAT3 [2] = target: T1, STAT3 (Homo sapiens, UniProt P40763); assay: STAT3 protein degradation in HOS osteosarcoma cells, western blot; assay type: cell-based; set-up: endogenous in cells; details: 500 nM, 6 h
Description: (§1) HOS osteosarcoma cells were incubated with 500 nM double-stranded transcription factor decoy oligonucleotide S3, AS1411, the first PROTAC product 1411-S3-1, the second PROTAC product 1411-S3-2, or AS1411+double-stranded transcription factor decoy oligonucleotide S3. After 6 h, cell samples were collected for protein extraction and subsequent western blot assay.

STAT3 [3] = target: T1, STAT3; assay: STAT3 protein degradation in HeLa cells, western blot; assay type: cell-based; set-up: endogenous in cells; host or cells: HeLa; details: 500 nM, 6 h
Description: HeLa cells were incubated with 500 nM said first PROTAC product 1411-S3-1 or second PROTAC product 1411-S3-2, and corresponding cell samples were collected at time gradients of 0 h, 2 h, 6 h, 12 h, 18 h, and 24 h for protein extraction and subsequent western blot assay.
HeLa cells were incubated with the first PROTAC product 1411-S3-1 or the second PROTAC product 1411-S3-2 at concentrations of 0 nM, 100 nM, 200 nM, 500 nM, and 1000 nM. After 6 h, cell samples were collected for protein extraction and subsequent western blot assay. […] The half-maximal degradation concentrations (DC50) of the first PROTAC product 1411-S3-1 and the second PROTAC product 1411-S3-2 against STAT3 at the protein level were 262.5 nM and 136.3 nM, respectively, as shown in FIG. 19.
as §1, with “HeLa” for “HOS osteosarcoma”
HeLa cells were incubated with 500 nM said first PROTAC product 1411-S3-1 or second PROTAC product 1411-S3-2, and proteasome inhibitor MG132 was added. After 6 h, cell samples were collected for protein extraction and subsequent western blot assay. […]

T1 sequence (P40763 whole entry): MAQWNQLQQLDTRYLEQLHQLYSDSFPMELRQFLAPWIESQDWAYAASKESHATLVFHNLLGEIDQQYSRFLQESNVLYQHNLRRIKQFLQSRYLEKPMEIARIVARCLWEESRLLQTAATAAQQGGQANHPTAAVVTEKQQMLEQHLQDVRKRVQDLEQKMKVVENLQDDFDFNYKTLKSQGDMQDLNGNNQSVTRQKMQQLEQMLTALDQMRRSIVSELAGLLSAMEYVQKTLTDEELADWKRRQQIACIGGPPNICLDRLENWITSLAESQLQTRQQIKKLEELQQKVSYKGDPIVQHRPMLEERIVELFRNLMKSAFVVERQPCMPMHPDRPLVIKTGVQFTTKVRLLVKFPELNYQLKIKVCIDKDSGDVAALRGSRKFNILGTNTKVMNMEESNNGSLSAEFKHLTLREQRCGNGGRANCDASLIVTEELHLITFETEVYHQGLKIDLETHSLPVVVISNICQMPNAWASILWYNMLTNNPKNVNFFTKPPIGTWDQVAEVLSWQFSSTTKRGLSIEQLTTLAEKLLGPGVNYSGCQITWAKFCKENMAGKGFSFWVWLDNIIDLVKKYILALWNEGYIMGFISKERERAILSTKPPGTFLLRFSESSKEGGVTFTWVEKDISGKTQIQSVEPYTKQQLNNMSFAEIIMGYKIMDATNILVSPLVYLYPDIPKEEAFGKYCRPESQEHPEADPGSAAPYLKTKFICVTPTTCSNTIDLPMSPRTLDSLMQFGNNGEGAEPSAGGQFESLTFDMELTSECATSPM

| Molecule | antitumor activity and clinical benefit [1] | protein level of STAT3 (STAT3 [2]) | protein level of STAT3 (STAT3 [3]) |
| --- | --- | --- | --- |
| N#Cc1ccc(O[C@H]2CC[C@H](NC(=O)c3ccc(N4CCC(CN5CCN(c6cc7c(cc6F)C(=O)N(C6CCC(=O)NC6=O)C7=O)CC5)CC4)nn3)CC2)cc1Cl (stereo partly drawn) [ARV-110, Bavdegalutamide] | exhibits potent antitumor activity and clinical benefit | – | – |
| S3: double-stranded transcription factor decoy oligonucleotide that specifically recognizes STAT3; strands SEQ ID NO: 5 and 6 (chain 1 CTTCTGGGAAA; chain 2 TTTCCCAGAAG; DNA, backbone and methylation of C not given here; double-stranded decoy) | – | only the first PROTAC product 1411-S3-1 and the second PROTAC product 1411-S3-2 can reduce the protein level of transcription factor STAT3 | only the first PROTAC product 1411-S3-1 and the second PROTAC product 1411-S3-2 can reduce the protein level of transcription factor STAT3 |
